Test results published in patent publication US11589586B2, “Pesticidal and parasiticidal pyrazole-isoxazoline compounds” (BOEHRINGER INGELHEIM ANIMAL HEALTH USA INC., priority 2017, dated 2023).

Tests used:
A. aegypti L1 larvae = assay: Efficacy against A. aegypti mosquitos (L1 larvae motility, dose response); assay type: in vivo; settings: Aedes aegypti; ten A. aegypti L1 larvae, diluted LB media, 25° C., 48h; read-out: EC50 (motility of larvae compared to DMSO control wells)
Description: Method A: Efficacy of Compounds Against A. aegypti Mosquitos Compounds were formulated in 100% DMSO are added to microtiter plates containing 180 μl of diluted LB media (Luria-Bertani media is a combination of tryptone, salt and yeast extract). Ten A. aegypti L1 larvae are added and the plates are incubated at 25° C. for 48h. The efficacy of a compound is determined based on the motility of the larvae as compared to average motility of control wells containing DMSO only. A dose response assay was conducted to determine an EC50 value.

[1] = test system: adult Ctenocephalides felis; assay: Efficacy against fleas when ingested (treated bovine blood membrane feeding); assay type: in vivo; settings: adult Ctenocephalides felis fed on treated bovine blood, 72 hour assessment, compared with untreated controls
Source text: Method B: Efficacy of Compounds Against Fleas when Ingested
A cylindrical test container was filled with 10 adult Ctenocephalides felis. A cylindrical well was closed on one end with a self-sealing flexible film and placed on top of the test container in such a position that the fleas could pierce the film and feed on the contents of the cylinder. The test compound solution was then pipetted into bovine blood and added to the well. The container part with the Ctenocephalides felis was held at 20-22° C. and 40-60% relative humidity while the well part containing the treated blood was held at 37° C. and 40-60% relative humidity. Assessment was performed at 72 hours after application in comparison with untreated controls.

Row | SMILES | EC50 (A. aegypti L1 larvae) | LC50 [1]
1 | Cc1cc(C2=NOC(c3cc(C(F)(F)F)nn3C)(C(F)(F)F)C2)ccc1C(=O)NCC(=O)NCC(F)(F)F (centres unmarked) [Compound 2-1, 2-[(2-Methyl-4-[5-[1-methyl-3-(trifluoromethyl)-1H-pyrazol-5-yl]-5-(trifluoromethyl)-4,5-dihydro-1,2-oxazol-3-yl]phenyl)formamido]-N-(2,2,2-trifluoroethyl)acetamide] | < 10 µM | < 20 µM
2 | Cn1nc(C(F)(F)F)cc1C1(C(F)(F)F)CC(c2ccc(C(=O)NCC(=O)NCC(F)(F)F)c3ccccc23)=NO1 (centres unmarked) [Compound 2-2, 2-[(4-[5-[1-methyl-3-(trifluoromethyl)-1H-pyrazol-5-yl]-5-(trifluoromethyl)-4,5-dihydro-1,2-oxazol-3-yl]naphthalen-1-yl)formamido]-N-(2,2,2-trifluoroethyl)acetamide] | < 10 µM | < 20 µM
3 | Cn1nc(C(F)(F)F)cc1C1(C(F)(F)F)CC(c2ccc3c(c2)COC32CN(C(=O)CS(C)(=O)=O)C2)=NO1 (centres unmarked) [Compound 2-3, 1-(5′-(5-(1-methyl-3-(trifluoromethyl)-1H-pyrazol-5-yl)-5-(trifluoromethyl)-4,5-dihydroisoxazol-3-yl)-3′H-spiro[azetidine-3,1′-isobenzofuran]-1-yl)-2-(methylsulfonyl)ethan-1-one] | < 10 µM | < 20 µM
4 | CSCCNC(=O)c1ccc(C2=NOC(c3cc(C(F)(F)F)nn3C)(C(F)(F)F)C2)cc1C (centres unmarked) [Compound 2-4, 2-methyl-4-[5-[1-methyl-3-(trifluoromethyl)-1H-pyrazol-5-yl]-5-(trifluoromethyl)-4,5-dihydro-1,2-oxazol-3-yl]-N-[2-(methylsulfanyl)ethyl]benzamide] | < 10 µM | < 20 µM
5 | Cc1cc(C2=NOC(c3cc(C(F)(F)F)nn3C)(C(F)(F)F)C2)ccc1C(=O)NCCS(C)(=O)=O (centres unmarked) [Compound 2-5, N-(2-methanesulfonylethyl)-2-methyl-4-[5-[1-methyl-3-(trifluoromethyl)-1H-pyrazol-5-yl]-5-(trifluoromethyl)-4,5-dihydro-1,2-oxazol-3-yl]benzamide] | < 10 µM | < 20 µM
6 | Cc1cc(C2=NOC(c3cc(C(F)(F)F)nn3C)(C(F)(F)F)C2)ccc1C(=O)NCC(F)(F)F (centres unmarked) [Compound 2-6, 2-methyl-4-[5-[1-methyl-3-(trifluoromethyl)-1H-pyrazol-5-yl]-5-(trifluoromethyl)-4,5-dihydro-1,2-oxazol-3-yl]-N-(2,2,2-trifluoroethyl)benzamide] | < 10 µM | < 50 µM
7 | Cc1cc(C2=NOC(c3cc(C(F)(F)F)nn3C)(C(F)(F)F)C2)ccc1C(=O)NC1CC1 (centres unmarked) [Compound 2-7, N-cyclopropyl-2-methyl-4-[5-[1-methyl-3-(trifluoromethyl)-1H-pyrazol-5-yl]-5-(trifluoromethyl)-4,5-dihydro-1,2-oxazol-3-yl]benzamide] | < 10 µM | < 50 µM
8 | C=CCNC(=O)c1ccc(C2=NOC(c3cc(C(F)(F)F)nn3C)(C(F)(F)F)C2)cc1C (centres unmarked) [Compound 2-8] | < 20 µM | –
9 | Cn1nc(C(F)(F)F)cc1C1(C(F)(F)F)CC(c2ccc(C(=O)NCC(=O)NCC(F)(F)F)cc2)=NO1 (centres unmarked) [Compound 2-9, 2-[(4-[5-[1-Methyl-3-(trifluoromethyl)-1H-pyrazol-5-yl]-5-(trifluoromethyl)-4,5-dihydro-1,2-oxazol-3-yl]phenyl)formamido]-N-(2,2,2-trifluoroethyl) acetamide] | < 20 µM | –
10 | Cn1nc(C(F)(F)F)cc1C1(C(F)(F)F)CC(c2ccc(Cl)c(C(=O)NC3CC3)c2)=NO1 (centres unmarked) [Compound 2-10, 2-Chloro-N-cyclopropyl-5-[5-[1-methyl-3-(trifluoromethyl)-1H-pyrazol-5-yl]-5-(trifluoromethyl)-4,5-dihydro-1,2-oxazol-3-yl]benzamide] | < 20 µM | –
11 | Cc1cc(C2=NOC(c3cn(C)nc3C(F)(F)F)(C(F)(F)F)C2)ccc1C(=O)NCC(=O)NCC(F)(F)F (centres unmarked) [Compound 2-11, 2-[(2-methyl-4-[5-[1-methyl-3-(trifluoromethyl)-1H-pyrazol-4-yl]-5-(trifluoromethyl)-4,5-dihydro-1,2-oxazol-3-yl]phenyl)formamido]-N-(2,2,2-trifluoroethyl)acetamide] | < 20 µM | –
12 | COCn1nc(C(F)(F)F)cc1C1(C(F)(F)F)CC(c2ccc(C(=O)NCC(=O)NCC(F)(F)F)c(C)c2)=NO1 (centres unmarked) [Compound 2-30, 2-[(4-[5-[1-(methoxymethyl)-3-(trifluoromethyl)-1H-pyrazol-5-yl]-5-(trifluoromethyl)-4,5-dihydro-1,2-oxazol-3-yl]-2-methylphenyl)formamido]-N-(2,2,2-trifluoroethyl)acetamide] | < 10 µM | –
13 | COCn1nc(C2(C(F)(F)F)CC(c3ccc(C(=O)NCC(=O)NCC(F)(F)F)c(C)c3)=NO2)cc1C(F)(F)F (centres unmarked) [Compound 2-31, 4-(5-(1-(methoxymethyl)-5-(trifluoromethyl)-1H-pyrazol-3-yl)-5-(trifluoromethyl)-4,5-dihydroisoxazol-3-yl)-2-methyl-N-(2-oxo-2-(2,2,2-trifluoroethylamino)ethyl)benzamide] | < 10 µM | –
